The record followed here is patent US20180221329A1, “CIS- AND TRANS-SUFFRUTICOSOL D AS THERAPEUTIC AGENTS” (MIDDLE TENNESSEE STATE UNIVERSITY, priority 2015, published 2018).

Experiment [1] concerns U2OS (human osteosarcoma) cells. As to the kind of experiment: Cell proliferation assay (AlamarBlue), U2OS. The experiment is classed as cell-based. The settings on record: for Selectivity: U2OS versus normal HMEC cells; for IC50: U2OS, 48 h, AlamarBlue. The method, then:
(§1) Cell culture. Four human cancer cell lines including A549 (lung carcinoma), BT20 (estrogen receptor-negative human breast adenocarcinoma), MCF-7 (estrogen receptor-positive human breast adenocarcinoma) and U2OS (human osteosarcoma) were purchased from American Type Culture Collection (ATCC). An A549 cell line that stably expresses Green Fluorescent Protein (GFP) was purchased from Cell BioLabs Inc. (San Diego, Calif., USA). A549, A549-GFP and BT20 cells were cultured in RPMI 1640 media (Sigma-Aldrich, St. Louis, Mo., USA), MCF7 cells were cultured in DMEM medium (ATCC, Manassas, Va., USA), and U20S cells were cultured in McCoy's 5A medium (ATCC, Manassas, Va., USA). As a control, HMEC cells (primary human mammary breast epithelial cells) were purchased from ATCC and cultured in McCoy's 5A medium. All medium contained 10% FBS (Sigma-Aldrich, St. Louis, Mo., USA) and 1% streptomycin and penicillin (Sigma-Aldrich, St. Louis, Mo., USA). These cells were incubated in a humid environment with 5% CO2 at 37° C.
(§2) Cell proliferation assay. The resazurin reduction reagent AlamarBlue (Invitrogen, Frederick, Md., USA) was used to evaluate the cytotoxicity of the compounds. Cells were plated at a density of 5×10^3 cells per well in 96-well microplates with 100 μl culture medium, and were allowed to attach for 16 h prior to treatment. Next, all the medium was replaced with medium containing the cis- or trans-suffruticosol D compounds at seven different concentrations: 320, 100, 32, 10, 3.2, 1.0, and 0.32 μM. The cells were placed in an incubator for 48 h at 37° C. Cells that were treated with medium-containing vehicle (1% DMSO) only serve as negative control. Subsequently, AlamarBlue solution was added to the medium and the cells were incubated in the CO2 incubator for 1 h. The fluorescent intensity change of the dye was measured at Ex 555 nm and Em 590 nm using a plate reader (Molecular Devices, Sunnyvale, Calif., USA). The cytotoxicity was examined by determining by IC50, the dose that inhibited 50% of cell growth, using GraphPad Prism software (GraphPad Software, La Jolla, Calif., USA).
(§3) Table 1. IC50 values of cis- and trans-suffruticosol D in selected cancer and normal cell lines. Cells were treated with various concentrations of cis- or trans-suffruticosol D for 48 h, and the viability of cells was evaluated with AlamarBlue dye.
On the technique in general: Resazurin is reduced to fluorescent resorufin, in cell work by metabolically active cells.

In experiment [2] the test system is HMEC cells (primary human mammary breast epithelial cells). The experiment is described as follows: Cell proliferation assay (AlamarBlue), normal HMEC. Format: cell-based. The settings on record: 48 h. The method, then:
as §1, §2, §3

Experiment [3] relates to apoptotic proteins in A549 cells. As to the kind of experiment: Apoptosis antibody array. Format: cell-based, human. The settings on record: 50 μM, 6 h. The method, then: F, Effect of cis- or trans-suffruticosol D on key regulatory proteins of apoptosis, Hsp60, Hsp70, survivin, and X-linked inhibitor of apoptosis protein (XIAP) (n=4).
Apoptosis antibody array. The Human Apoptosis Antibody Array Kit (RayBiotech, Inc., Norcross, Ga. USA) was used to evaluate apoptotic protein expression according to the manufacturer's instructions. A549 cells were plated at 8,000 cells/well intensity in a 96-well plate and then treated with cis or trans-suffruticosol D at a concentration of 50 μM for 6 h. The cells were lysed in lysis buffer with protease inhibitors. The cell lysates were concentrated using a protein concentration column (EMD Millipore, Billerica, Mass., USA) to a total protein concentration of 2 mg/ml. The samples were then diluted 10 fold with assay buffer and incubated with an array membrane for 2 h at room temperature, and washed with washing buffer five times. Subsequently, the cocktail of biotin-conjugated antibody mix was added to the membrane and incubated overnight at 4° C. The samples were then incubated with HRP-conjugated streptavidin for 2 h at room temperature and chemiluminescence substrate was used to detect the signal. Image Studio software (LI-COR Biotechnology) was used to quantify the intensity of each array dot and then normalized to the internal control.

Another experiment has as its system A549-GFP cells. As to the kind of experiment: Cell motility assay (fluorescent bead track area). Format: cell-based, human. The settings on record: 18 h, medium with 10% FBS. Here is the method: FIGS. 4A and 4B depict cell motility changes induced by cis- and trans-suffruticosol D in A549 cells. A549-GFP cells were seeded in 96-well plate with a monolayer of fluorescent beads. After treatment with cis- or trans-suffruticosol D for 18 h, individual cell movement was evaluated by measuring the fluorescent track area. Cells treated with serum free medium served as a negative control and cells treated with medium containing 10% serum served as a positive control.
Cell motility assay. A 96-well collagen plate (Corning, N.Y., USA) was coated with blue fluorescent beads (Life Technologies, Eugene, Oreg., USA) as follows. The beads were centrifuged for 1 min at 14,000 g and washed twice with PBS, then 75 μl beads were added to each well of the 96-well collagen plate and incubated for 1 h at 37° C. The cells were seeded on the lawn of fluorescent beads and the sizes of the tracks generated by migrating cells were measured. After the plate was washed 5 times with PBS, A549-GFP cells were seeded at 500 cells/well in the coated plate and incubated for 1 h at 37° C. Subsequently the cells were treated with different concentrations of cis- or trans-suffruticosol D in medium containing 10% FBS for 18 h. Cells treated with serum-free medium serve as the negative control and cells treated with medium containing 10% FBS serve as the positive control. Cell tracks were imaged using an Arrayscan VTI HCS reader (Thermo Scientific, Waltham, Mass., USA) and the data was analyzed by vHCS Scan software. The mean of the full track area per cell for the test compound and the controls was calculated.

As to `Oc1ccc(C=Cc2c3c(cc4c2[C@@H](c2cc(O)cc(O)c2)[C@H](c2ccc(O)cc2)O4)O[C@H](c2ccc(O)cc2)[C@@H]3c2cc(O)cc(O)c2)cc1` [cis-suffruticosol D], in experiment [1] (listed as cis-SD), the Selectivity was 11 and the IC50 (in general, the concentration needed to halve the response being measured) stood at 24.6 ± 4.4 µM. In addition, the IC50 in experiment [2] was found to be 146 µM. In experiment [2] (listed as cis-SD), this compound registered an IC50 of 269.5 ± 2.2 µM. Besides, in experiment [3], the Hsp60 expression entry was “significant down regulation”, the Hsp70 expression result is “significant down regulation”, the “X-linked inhibitor of apoptosis protein (XIAP) expression” value was “significant down regulation” and the survivin expression result is listed as “significant down regulation”. Besides, the “decrease of A549 cell motility” value in the experiment with A549-GFP cells (10 μM) is 42.3%. Moreover, in the experiment on A549-GFP cells (32 μM), the “decrease of A549 cell motility” value was 42.0%. Also, the “decrease of A549 cell motility” value in the experiment with A549-GFP cells (100 μM) is reported as 50.4%.

The compound `Oc1ccc(/C=C/c2c3c(cc4c2[C@@H](c2cc(O)cc(O)c2)[C@H](c2ccc(O)cc2)O4)O[C@H](c2ccc(O)cc2)[C@@H]3c2cc(O)cc(O)c2)cc1` [trans-suffruticosol D] registered a Selectivity in experiment [1] (listed as trans-SD) of 12.9. The IC50 in experiment [1] (listed as trans-SD) came out at 11.3 ± 2.3 µM; in experiment [2] (listed as trans-SD), 146 ± 2.7 µM; in experiment [2] (Homo sapiens, HMEC), 270 µM. Moreover, in experiment [3], the Hsp60 expression entry was “significant down regulation”. Also, in experiment [3], the Hsp70 expression entry is given as “significant down regulation”. Besides, the “X-linked inhibitor of apoptosis protein (XIAP) expression” value in experiment [3] was “significant down regulation”. Also, in experiment [3], the survivin expression entry was “significant down regulation”. Also, the “decrease of A549 cell motility” value in the experiment on A549-GFP cells (10 μM) was 40.7%; in the experiment with A549-GFP cells (32 μM) it was 40.7%; in the experiment on A549-GFP cells (100 μM) it was 54.9%.
